These results are taken from patent publication US20110002897A1, “DIRECTED DIFFERENTIATION OF STEM CELLS” (Burnham Institute for Medical Research, priority 2009, published 2011).

One series concerns H9 hESCs. In words: Feeder-free neural induction on Matrigel, PAX6/Nestin by FACS and immunostaining. The class given is cell-based, human. The following applies: for total H9 hESCs differentiated into PAX6+/Nestin+ cells (FACS): 10 μM inhibitor together with 100 ng/mL MK+DAP. A general note: A flow cytometer gives signals particle by particle.
Another series has as its system ALK 5, 4, 7. The following applies: Tojo et al. 2005; cited from earlier work.
Another series relates to hESCs (H9 cells). In words: Neural tube-like (NTL) structure formation by hESC colonies grown on HS27 fibroblasts. The following applies: for NTL structures observed: MK applied together with FGF-2, or MK replaced by the factor. The class given is cell-based, human. As to the method:
To confirm that increased MK levels correlate with differentiation, EBs from hESCs and HS27-iPSCs were generated and quantitatively analyzed MK expression. […] To test if exogenously added MK may display neural-inducing activities, hESCs were cultured in the presence of recombinant MK protein using two different assays. First, manually passaged hESCs (H9 cells) were plated on HS27 fibroblasts and grown in the presence of 100 ng/mL MK. […] These NTLs expressed the typical neuroectodermal markers PAX6 and Nestin (FIG. 1d) and, when single NTLs were manually picked under microscopic guidance and attached to laminin-coated dishes, neuronal cells started migrating out from these structures (FIG. 9). […] Second, MK-induced differentiation was investigated under feeder-free conditions. Manually passaged H9-hESCs cells were plated on Matrigel and grown in 100 ng/mL MK for 6 days.
Human ESC lines H1, H9, H14, BG02, HSF-6, and HUES13 were cultured on matrigel (BD) or Geltrex (Invitrogen) in the presence of MEF-CM (DMEM/F12, 20% Knockout Serum Replacement, non-essential amino acids, 2-mercaptoethanol). In some experiments, hESCs and iPSCs were cultured in mTeSR medium (Stem Cell Technologies). Neural cells were grown in N2B27 supplement (Gibco). The following reagents were used: MK (Millipore), FGF-2 (NIH/NCI), BDNF (Peprotech), GDNF (Peprotech), FGF-8 (Peprotech), SHH (Peprotech and R&D Systems), Noggin (Peprotech), IGF-1 (Peprotech), DLL1, DLL4, Jagged1 (R&D), all-trans RA (Sigma), Forskolin (Sigma), A 81-01 (Tocris), Dorsomorphin (Sigma), PNU-74654 (Sigma), Rapamycin (Sigma), LY294002 (Tocris), U0126 (Tocris).
Cells were fixed with 4% paraformaldehyde and stained with following antibodies: anti-mouse OCT-4 (1:200, Santa Cruz, C-10), rabbit Nanog (1:200, Santa Cruz, H-155), mouse TRA 1-81 (1:200, Millipore), alpha-Fetoprotein (1:50, Santa Cruz, AFP-11), goat MK (1:100, R&D Systems), goat SOX17 (1:100, R&D), goat Brachyury (1:100, R&D), PAX6 (1:300, Covance), mouse and rabbit Tuj1 (1:500, Covance), goat OTX2 (1:1000, Neuromics), mouse Nestin (1:400, Millipore), rabbit OLIG2 (1:50, Santa Cruz, H-68), mouse HB9 (1:50, 81.5C10, Developmental Studies Hybridoma Bank), rabbit GFAP (1:1000, DAKO), rabbit and sheep TH (1:500, Pel-Freez), rabbit PTPz (1:50, Santa Cruz), goat ALK (1:50, Santa Cruz). Light-microscopic immunostaining for PAX6 with the DAB method was performed according to the manufacturer (Vector).

In another series the test system is ERK1/2. In words: Western blot of phospho-ERK1/2 (MAPK pathway). The following applies: 100 ng/mL, 24 hr. The class given is cell-based, human. An excerpt:
(§1) The signal transduction pathway(s) involved in this highly efficient neural conversion was addressed. The PI3K/MAPK pathways were focused on since MK-induced activation of both pathways has been reported (Kadomatsu et al. Cancer Lett. 204:127-143, 2004; Stoica et al. JBC 277:35990-35998, 2002). Since both pathways are already active in undifferentiated hESCs and necessary for their growth (Bendall et al. Nature 448:1015-1021, 2007; Vallier et al. J. Cell. Sci. 118:4495-4509, 2005; Xu et al. Nat. Methods 2:185-190, 2005), cells were exposed to high concentrations (100 ng/mL) of MK, IGF-1, and FGF-2 for 24 hr and phosphorylation levels of AKT and ERK1/2 were compared (FIG. 4a).
(§2) Cell lysates were prepared in RIPA buffer containing protease and phosphatase inhibitors (Pierce). 4-12% gradient gels (NuPage) were used with Invitrogen's SureLock Mini-Cell and gel-to-membrane transfer was performed with the XCell Blot Module (Invitrogen). The following primary antibodies were used: goat MK (R&D), mouse and rabbit GAPDH (1:1000, Santa Cruz), p-AKT 5473 and total AKT (1:1000, Cell Signaling Technologies), phospho-ERK1/2 and total ERK1/2 (1:1000, Cell Signaling Technologies). The following secondary antibodies were used: donkey anti-mouse Alexa 680 (Invitrogen), donkey anti-rabbit Alexa 680, donkey anti-rabit 800 (Rockland), donkey anti-mouse 800. Western Blots were imaged using the Odyssey Infrared Imaging System (LI-COR).
(In general: In western blotting, separated proteins are transferred to a membrane and probed.)

The test system of a further series is AKT. Briefly: Western blot of AKT phosphorylation at Serine 473 (PI3K pathway). The class given is cell-based, human. The following applies: 100 ng/mL, 24 hr.
Text: as §1
as §2, with “Western Blots were imaged using the Odyssey Infrared Imaging System (LI-COR).” left out

“Also recorded” adds a separate entry of the source.

As to `O=c1cc(N2CCOCC2)oc2c(-c3ccccc3)cccc12` [LY294002], the “total H9 hESCs differentiated into PAX6+/Nestin+ cells (FACS)” value in the series with H9 hESCs was approximately 95%.
For `N#CC(=C(/N)Sc1ccccc1N)/C(C#N)=C(\N)Sc1ccccc1N` [U0126], the “total H9 hESCs differentiated into PAX6+/Nestin+ cells (FACS)” value with H9 hESCs is approximately 95%. In the series on H9 hESCs (40 μM inhibitor together with 100 ng/mL MK+DAP), the “PAX6 expression / neuralization in MK+DAP-treated hESC cultures” value is reported as “dramatically reduced; also recorded: disruption of neuralization”.
Consider `Cc1cccc(-c2nn(C(=S)Nc3ccccc3)cc2-c2ccnc3ccccc23)n1` [A81-01], for which the “potency relative to SB431542 (another inhibitor of ALK 5, 4, 7)” value in the series with ALK 5, 4, 7 was “more potent”.
For Jagged1: Notch ligand (R&D), in the series on hESCs (H9 cells), the NTL structures observed entry was “never observed”.
As for delta-like 4: Notch ligand (R&D), the NTL structures observed entry in the series with hESCs (H9 cells) is “never observed”.
Consider “FGF-2: fibroblast growth factor 2 (NIH/NCI)”, for which the “MAPK activation (ERK1/2 phosphorylation level)” value (from here on “MAPK activation”) with ERK1/2 was “significantly stronger activation”.
Consider “IGF-1: insulin-like growth factor 1 (Peprotech)”, for which, in the series on hESCs (H9 cells), the NTL structures observed entry is “never observed”. The “MAPK activation” value in the series on ERK1/2 is on record as “moderate level”. Further, the “signaling through PI3K pathway (phosphorylation level of AKT)” value in the series on AKT was “signal through both the PI3K pathway and the MAPK pathway”.

B1: MK: 13-kDa cysteine-rich secreted heparin-binding growth and differentiation factor; recombinant protein (Millipore) (protein, UniProt P21741 21-143, looked up)
Midkine: VAKKKDKVKKGGPGSECAEWAWGPCTPSSKDCGVGFREGTCGAQTQRIRCRVPCNWKKEFGADCKYKFENWGACDGGTGTKVRQGTLKKARYNAQCQETIRVTKPCTPKTKAKAKAKKGKGKD
With B1, the “total cells differentiated into PAX6+ cells” value with H9 hESCs (100 ng/mL MK alone, Matrigel, feeder-free, 6 days, FACS and immunostainings) is given as 20-40%. Further, in the series with hESCs (H9 cells) (100 ng/mL MK, within 6-8 days), the “solitary growing hESC colonies directly differentiated into neural tube-like (NTL) structures” value is 5-10%. Further, the “MAPK activation” value in the series with ERK1/2 is on record as “moderate level”. Also, the “signaling through PI3K pathway (phosphorylation level of AKT)” value with AKT was “signal through both the PI3K pathway and the MAPK pathway”.

B2: delta-like 1: Notch ligand (R&D) (protein, UniProt O00548 18-723, looked up)
Delta-like protein 1: QVWSSGVFELKLQEFVNKKGLLGNRNCCRGGAGPPPCACRTFFRVCLKHYQASVSPEPPCTYGSAVTPVLGVDSFSLPDGGGADSAFSNPIRFPFGFTWPGTFSLIIEALHTDSPDDLATENPERLISRLATQRHLTVGEEWSQDLHSSGRTDLKYSYRFVCDEHYYGEGCSVFCRPRDDAFGHFTCGERGEKVCNPGWKGPYCTEPICLPGCDEQHGFCDKPGECKCRVGWQGRYCDECIRYPGCLHGTCQQPWQCNCQEGWGGLFCNQDLNYCTHHKPCKNGATCTNTGQGSYTCSCRPGYTGATCELGIDECDPSPCKNGGSCTDLENSYSCTCPPGFYGKICELSAMTCADGPCFNGGRCSDSPDGGYSCRCPVGYSGFNCEKKIDYCSSSPCSNGAKCVDLGDAYLCRCQAGFSGRHCDDNVDDCASSPCANGGTCRDGVNDFSCTCPPGYTGRNCSAPVSRCEHAPCHNGATCHERGHRYVCECARGYGGPNCQFLLPELPPGPAVVDLTEKLEGQGGPFPWVAVCAGVILVLMLLLGCAAVVVCVRLRLQKHRPPADPCRGETETMNNLANCQREKDISVSIIGATQIKNTNKKADFHGDHSADKNGFKARYPAVDYNLVQDLKGDDTAVRDAHSKRDTKCQPQGSSGEEKGTPTTLRGGEASERKRPDSGCSTSKDTKYQSVYVISEEKDECVIATEV
On to B2, for which, in the series on hESCs (H9 cells), the NTL structures observed entry was “never observed”.

B3: Noggin: BMP antagonist, recombinant protein (Peprotech) (protein, UniProt Q13253 28-232, looked up)
Noggin: QHYLHIRPAPSDNLPLVDLIEHPDPIFDPKEKDLNETLLRSLLGGHYDPGFMATSPPEDRPGGGGGAAGGAEDLAELDQLLRQRPSGAMPSEIKGLEFSEGLAQGKKQRLSKKLRRKLQMWLWSQTFCPVLYAWNDLGSRFWPRYVKVGSCFSKRSCSVPEGMVCKPSKSVHLTVLRWRCQRRGGQRCGWIPIQYPIISECKCSC
As to B3, the NTL structures observed result in the series with hESCs (H9 cells) is listed as “never observed”.
